The subject of assay [1] is Complete Freunds Adjuvant model of inflammatory pain. Kind of assay: Combination study: isobolographic analysis in the Complete Freunds Adjuvant model of inflammatory pain. The assay is classed as in vivo. Particulars: rat, PO, etoricoxib:Compound A dose ratios 1:1, 0.3:1 and 3:1. As to the method: Etoricoxib and Compound A were tested in PO dose ratios of 1:1, 0.3:1, and 3:1.

In a further assay the target is T1, Human FAAH (Homo sapiens, UniProt O00519).
T1 construct: The full length FAAH was subcloned into the mammalian expression vector, peDEF.neo
T1 sequence (O00519 1-579): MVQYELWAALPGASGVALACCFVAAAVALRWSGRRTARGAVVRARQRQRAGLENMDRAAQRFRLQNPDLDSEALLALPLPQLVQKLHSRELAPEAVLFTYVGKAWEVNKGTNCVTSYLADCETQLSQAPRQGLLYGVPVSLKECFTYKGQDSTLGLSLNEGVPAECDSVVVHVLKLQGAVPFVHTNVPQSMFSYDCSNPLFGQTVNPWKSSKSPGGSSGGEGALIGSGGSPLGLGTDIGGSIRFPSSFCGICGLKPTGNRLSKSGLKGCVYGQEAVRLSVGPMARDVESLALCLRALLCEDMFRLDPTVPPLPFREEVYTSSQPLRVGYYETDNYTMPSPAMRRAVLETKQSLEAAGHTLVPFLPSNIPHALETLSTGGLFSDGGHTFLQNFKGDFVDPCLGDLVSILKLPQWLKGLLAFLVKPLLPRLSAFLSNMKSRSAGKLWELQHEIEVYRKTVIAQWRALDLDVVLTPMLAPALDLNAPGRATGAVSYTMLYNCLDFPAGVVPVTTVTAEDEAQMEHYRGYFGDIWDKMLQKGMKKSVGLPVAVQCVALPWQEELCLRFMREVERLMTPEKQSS
Kind of assay: Human FAAH lysate assay (CHO cell lysate expressing FAAH, AAMCA or 3H-anandamide hydrolysis). Type of assay: biochemical. The source says: To assist in assay development stable cell lines for human, murine and rat full length FAAH were developed. […] The full length FAAH was subcloned into the mammalian expression vector, peDEF.neo, using XbaI and EcoRI restriction sites and used for stable cell line generation.
CHO cells expressing FAAH were used to prepare either crude cell lysate or microsome fractions. To harvest cells, tissue culture media was decanted, the monolayer washed three times with Ca^++Mg^++ free PBS and cells recovered after […] in enzyme free dissociation media (Millipore Corp, Billerica, Mass.). Cells were collected by centrifuging at 2000 rpm for 15 min. and the cell pellet re-suspended with 50 mM HEPES (pH 7.4) containing 1 mM EDTA and the protease inhibitors aprotinin (1 mg/ml) and leupeptin (100 μM). The suspension was sonicated at 4° C. and the cell lysate recovered after centrifuging at 12,000×g (14,600 rpm, SS34 rotor) for 20 min at 4° C. to form a crude pellet of cell debris, nuclei, peroxisomes, lysosomes, and mitochondria; the supernatant or cell lysate was used for FAAH enzyme assay. In some cases, microsomes fractions enriched in FAAH were prepared by centrifuging the cell lysate further at 27,000 rpm (100,000×g) in SW28 rotor for 50 minutes at 4° C. The pellet containing FAAH-enriched microsomes was re-suspend in 50 mM HEPES, (pH 7,4) 1 mM EDTA, and any remaining DNA sheared by passage of material through a 23 gauge needle and aliquots of enzyme were store at −80° C. prior to use.
Assays are performed on either cell lysate or microsome fractions prepared as described or in whole cell format employing either the fluorescent substrate AAMCA (Cayman chemical, Ann Arbor, Mich.,) or ^3H-anandamide ([ETHANOLAMINE-1-3H] American Radiolabeled Chemicals; 1 mCi/ml). The cell lysate or microsome assay is performed in Costar black wall, clear bottom plates by adding FAAH_CHO (whole cell, cell lysate or microsome) in assay buffer (50 mM Phosphate, pH 8.0, 1 mM EDTA, 200 mM KCl, 0.2% glycerol, 0.1% fatty acid free BSA) to each well, followed by either DMSO or compound and allowed to incubate at 22-25° C. for fifteen minutes. AAMCA substrate was used to achieve a final concentration of 1 μM and reaction allowed to proceed at room temperature for 1-3 hours. […] Whole cell assay is conducted with cells harvested after rinsing tissue culture flasks three times with Ca^++Mg^++ free PBS, incubating for 10 mm in Enzyme free dissociation media and centrifuging for 5 minutes at 1,000 rpm in table top centrifuge. Cells are resuspended in assay buffer at desired cell number in (4×10^4 cells/assay in 96-well format; 1×10^4 cells/assay in 384-well format) and assayed as described.
Alternatively, assays are performed using anandamide [ethanolamine 1-^3H] (specific activity of 10 Ci/mmol) diluted with cold anandamide to achieve a final assay concentration of 1 μM anandamide (˜50,000 cpm). Enzyme (CHO cell lysate, brain or liver homogenate) is incubated in assay buffer (50 mM Phosphate, pH 8.0, 1 mM EDTA, 200 mM KCl, 0.2% glycerol, 0.1% fatty acid free BSA) with inhibitor at 25° C. for 30 minutes. The reaction was terminated by addition of 2 volumes of chloroform:methanol (1:1) and mixed by vortexing. Following a centrifugation step, 2000 rpm for 10 min. at room temperature, the aqueous phase containing the released […] was recovered and quantitated by liquid scintillation as a reflection of FAAH enzyme activity.

The mark [2] stands for this setting: B series, read-out: Human FAAH lysate assay: IC50.
Setting [3] is: tables of the B series, read-out: hFAAH lysate IC50.

Where a name gives a salt, the structure may show the parent alone. Read-outs that look alike come from different tables or passages of the source.

For the compound `Cc1ccc(-c2ncc(Cl)cc2-c2ccc(S(C)(=O)=O)cc2)cn1` [etoricoxib, reference compound], the “Interaction of analgesic effect against inflammatory pain when co-dosed (isobologram)” value in assay [1] was “additive”. For `CC(C)(O)c1ccc(-c2nc(-c3ccc(F)c(F)c3)oc2Sc2ccc(Cl)cn2)cn1` [compound A], the “Interaction of analgesic effect against inflammatory pain when co-dosed (isobologram)” value in assay [1] is recorded as “additive”. Consider `CN(C)C(=O)C1CC1c1ccc(-c2nc(C3CC3)n(C)c2Sc2ccc(Cl)cn2)cc1` (stereo not drawn) [Example 13B, 5-[(5-Chloropyridin-2-yl)thio]-2-cyclopropyl-4-(4-{2-[(dimethylamino)carbonyl]cyclopropyl}phenyl)-1-methyl-1H-imidazol-3-ium trifluoroacetate], for which, at Human FAAH (setting [2]), the IC50 worked out at 48.3 nM.

Regarding `Cc1nnc([C@H]2C[C@@H]2c2ccc(-c3ncn(C)c3Sc3ccc(Cl)cn3)cc2)o1` [Example 19B, 5-Chloro-2-[(1-methyl-4-{4-[(1S,2S)-2-(5-methyl-1,3,4-oxadiazol-2-yl)cyclopropyl]phenyl}-1H-imidazol-5-yl)thio]pyridine], at Human FAAH (setting [2]), the half-inhibitory concentration (IC50) is 46 nM. Still for that read-out and setting: in the case of `CN(CCF)C(=O)[C@H]1C[C@@H]1c1ccc(-c2ncn(C)c2Sc2ccc(Cl)cn2)cc1` [Example 11B, (1S,2S)-2-(4-{5-[(5-Chloropyridin-2-yl)thio]-1-methyl-1H-imidazol-4-yl}phenyl)-N-(2-fluoroethyl)-N-methylcyclopropanecarboxamide] it was 3 nM. Take `CNC(=O)C1CC1c1ccc(-c2ncn(C)c2Sc2ccc(Cl)cn2)cc1` (stereo not drawn) [Example 3B]: the IC50 on Human FAAH (setting [3]) is 1.4 nM. Turning to `Cn1cnc(-c2ccc([C@H]3C[C@@H]3c3n[nH]c(=S)[nH]3)cc2)c1Sc1ccc(Cl)cn1` [Example 32B, 5-[(1S,2S)-2-(4-{5-[(5-chloropyridin-2-yl)thio]-1-methyl-1H-imidazol-4-yl}phenyl)cyclopropyl]-2,4-dihydro-3H-1,2,4-triazole-3-thione], the IC50 on Human FAAH (setting [2]) amounted to 304 nM. On to `Cn1cnc(-c2ccc([C@H]3C[C@@H]3COCCF)cc2)c1Sc1ccc(Cl)cn1` [Example 25B, 5-Chloro-2-{[4-(4-{(1S,2S)-2-[(2-fluoroethoxy)methyl]cyclopropyl}phenyl)-1-methyl-1H-imidazol-5-yl]thio}pyridine], for which, on Human FAAH (setting [2]), the half-maximal inhibitory concentration (IC50) amounted to 69.3 nM. `Cn1cnc(-c2ccc([C@H]3C[C@@H]3c3n[nH]c(=O)n3C)cc2)c1Sc1ccc(Cl)cn1` [Example 34B, 5-[(1S,2S)-2-(4-{5-[(5-chloropyridin-2yl)thio]-1-methyl-1H-imidazol-4-yl}phenyl)cyclopropyl]-4-methyl-2,4-dihydro-3H-1,2,4-triazol-3-one]: the IC50 at Human FAAH (setting [2]) was 893 nM. The same measure, in the same setting: then `COC(=O)[C@H]1C[C@@H]1c1ccc(-c2ncn(C)c2Sc2ccc(Cl)cn2)cc1` [Example 21B, Methyl (1S,2S)-2-(4-{5-[(5-chloropyridin-2-yl)thio]-1-methyl-1H-imidazol-4-yl}phenyl)cyclopropanecarboxylate], with 0.2 nM. For `CC(C)c1ccc(Sc2c(-c3ccc([C@H]4C[C@@H]4c4n[nH]c(=O)o4)cc3)ncn2C)cc1` [Example 43B], the IC50 at Human FAAH (setting [3]) was 20 nM.

Turning to `CN(C)C(=O)[C@H]1C[C@@H]1c1ccc(-c2nc[nH]c2Sc2ccc(Cl)cn2)cc1` [Example 20B, (1S,2S)-2-(4-{5-[(5-Chloropyridin-2-yl)thio]-1H-imidazol-4-yl}phenyl)-N,N-dimethylcyclopropanecarboxamide], the IC50 at Human FAAH (setting [2]) stood at 650 nM. For the compound `CN(C)C(=O)[C@H]1C[C@@H]1c1ccc(-c2ncn(C)c2Sc2ccc(Cl)cc2)cc1` [Example 9B], the IC50 on Human FAAH (setting [2]) stood at 0.3 nM. Turning to `Cn1cnc(-c2ccc([C@H]3C[C@@H]3C(N)=O)cc2)c1Sc1ccc(Cl)cn1` [Example 7B], the IC50 at Human FAAH (setting [3]) is 3.3 nM. With `COC[C@H]1C[C@@H]1c1ccc(-c2ncn(C)c2Sc2ccc(Cl)cn2)cc1` [Example 24B, 5-Chloro-2-[(4-{4-[(1S,2S)-2-(methoxymethyl)cyclopropyl]phenyl}-1-methyl-1H-imidazol-5-yl)thio]pyridine], the 50% inhibitory concentration (IC50) at Human FAAH (setting [2]) was determined as 35.5 nM.

The term IC50 denotes the midpoint of a concentration-inhibition curve.

(Values after patent publication US20130030000A1, “PHARMACEUTICAL COMPOSITIONS FOR THE TREATMENT OF PAIN AND OTHER INDICATIONS” (priority 2010, published 2013).)
